# Reference: publication PMC8398393, “Synthesis and Biological Evaluation of Amidinourea Derivatives against Herpes Simplex Viruses” (Molecules, 2021)
# pIC50: −log10 of the molar value.
# Tested on: not listed separately
# Experiment: Cytotoxicity assay (MTT) in Vero cells
# Format: cell-based
# Details: African green monkey, Vero cells (African green monkey kidney cells), compound concentration that produces 50% of cytotoxicity
# Protocol: We then investigated whether the new amidinourea derivatives 5a–k could affect HSV-1 and HSV-2 replication. We first assessed cell cytotoxicity of the compounds in African green monkey kidney cells (Vero) to rule out the possibility that antiviral activity was related to the cytotoxic effects of the drug (Table 1). Vero cells were seeded at a density of 3 × 10^4/well in a 96-well culture plate. After 24 h, the cells were treated with different dilutions of drugs, or mock-treated using the same amount of vehicle solution (DMSO). Forty-eight hours after treatment, cell viability was determined using a standard 3-(4,5-dimethylthiazol-2-yl)-2,5-diphenyltetrazolium bromide (MTT) assay. The compounds were considered non-toxic only if they maintained at least 70% cell viability after 48 h of treatment.
# To determine the cytotoxicity of amidinourea derivatives, Vero cells were seeded in a 96-well culture plate and exposed to increasing concentrations of either compounds or vehicle (DMSO) the following day. After 48 h of incubation, the number of viable cells was determined using the 3-(4,5-dimethylthiazol-2-yl)-2,5-diphenyltetrazolium bromide (MTT) (Sigma-Aldrich, Milan, Italy) assay, as previously described.
# (§1) Data were presented as the mean value and standard error of the mean (SEM). Data were analyzed by means of GraphPad Prism 5 software (GraphPad Software, Inc., La Jolla, CA, USA). Statistical analysis was performed using one-way ANOVA with Bonferroni’s post-test; p < 0.05 was considered statistically significant. The IC50 e CC50 values were calculated using the online tool Quest Graph™ IC50 Calculator, AAT Bioquest, Inc., Sunnyvale, CA, USA, https://www.aatbio.com/tools/ic50-calculator (accessed on 4 May 2021).
row,SMILES,CC50 at 48 h
1,N=C(NC(=O)NCc1ccc(Cl)cc1)Nc1ccc(Cl)cc1 [Compound 5a],168 µM
2,CC(NC(=O)NC(=N)Nc1ccc(Cl)cc1)c1ccccc1 (stereo not drawn) [Compound 5b],196 µM
3,Cc1ccc(CNC(=O)NC(=N)Nc2ccc(Cl)cc2)cc1 [Compound 5c],184 µM
4,N=C(NC(=O)N1CCOCC1)Nc1ccc(Cl)cc1 [Compound 5d],1560 µM
5,N=C(NC(=O)NCCNc1ccccc1)Nc1ccc(Cl)cc1 [Compound 5e],142 µM
6,N=C(NC(=O)N1CCNC(c2ccccc2)C1)Nc1ccc(Cl)cc1 (stereo not drawn) [Compound 5f],98.6 µM
7,N=C(NCc1ccccc1)NC(=O)N1CCN(c2ccccc2)CC1 [Compound 5g],246 µM
8,N=C(NCc1ccccc1)NC(=O)N1CCN(c2ccc(F)cc2)CC1 [Compound 5h],389 µM
9,N=C(NC(=O)N1CCN(c2ccccc2)CC1)Nc1ccc(Cl)cc1 [Compound 5i],149 µM
10,N=C(NCc1ccccc1)NC(=O)N1CCN(c2ccc(Cl)cc2)CC1 [Compound 5j],177 µM
11,N=C(NC(=O)N1CCN(C23CC4CC(CC(C4)C2)C3)CC1)Nc1ccc(Cl)cc1 [Compound 5k],86.7 µM

# Tested on: HSV-1
# Experiment: Virus yield reduction assay (plaque titration) HSV-1
# Format: cell-based, Herpes simplex virus type 1 (clinical isolate) in Vero cells
# Details: Human alphaherpesvirus 1; HSV-1, Vero cells, MOI 0.1, 2 h pre-treatment, 48 h, plaque assay; read-out: IC50 values (compound concentration required to inhibit 50% of viral infectivity)
# Protocol: (§2) Vero cells were seeded at a density of 3 × 10^5/well in a 24-well culture plate. Twenty-four hours later, the cells were pre-treated with the different drugs for 2 h at 37 °C, and then infected in duplicate with HSV-1 or HSV-2 at an MOI of 0.1, in the presence of the compounds; following virus adsorption, the viral inoculum was removed and cultures were exposed to the compounds for 48 h. The extent of HSV-1 and HSV-2 replication was then assessed by titrating the infectivity of supernatants and cell-associated viruses using a standard plaque assay in Vero cells. Plaques were microscopically counted, and the mean plaque counts for each drug concentration were expressed as plaque-forming units per milliliter (PFU/mL) (Figure 3).
# (§3) The African green monkey kidney cells (Vero, ATCC CCL-81™) were cultured in Dulbecco’s Modified Eagle’s Medium, supplemented with 10% heat inactivated fetal bovine serum (FBS), 2 mM glutamine, 1 mM sodium pyruvate, 100 U/mL penicillin and 100 µg/mL streptomycin sulfate (Sigma-Aldrich, Milan, Italy). Clinical isolates of HSV-1 and HSV-2 were a generous gift from Valeria Ghisetti, Amedeo di Savoia Hospital, Turin, Italy. They were propagated and titrated by plaque assay on Vero cells, as previously described.
# (§4) Vero cells were seeded in 24-well plates and pre-treated, after 24 h, with different concentrations of the amidinourea derivatives or the vehicle control (DMSO) for 2 h at 37 °C. They were then infected with HSV at MOI of 0.1 PFU/cell in the presence of the compounds. Following virus adsorption (2 h at 37 °C), the viral inoculum was removed, and the cultures were maintained in a medium that contained the corresponding molecule for 48 h. The cells and supernatants were then harvested and disrupted using three freeze (liquid nitrogen)/thaw (37 °C) cycles. The extent of virus replication was subsequently assessed by titrating the infectivity of the supernatants of the cell suspensions in Vero cells, as previously described. Plaques were microscopically counted, and the mean plaque counts for each drug concentration were expressed as PFU/mL.
# as §1
# (§5) Figure 3 Antiviral activity of 5a–k against HSV-1 and HSV-2. Upper panel. Virus yield reduction assay. Vero cells were treated as described in the manuscript with the indicated compounds. The extent of (A) HSV-1 and (B) HSV-2 replication was then assessed by titrating the infectivity of supernatants and cell-associated viruses using a standard plaque assay in Vero cells. Plaques were microscopically counted, and the mean plaque counts for each molecule were expressed as PFU/mL. Mean ± SEM is shown (***, p < 0.001, one-way ANOVA followed by Bonferroni’s post-tests). Lower panel. Representative light microscopy images of Vero cells infected with (A) HSV-1 or (B) HSV-2 and treated with the indicated compounds, as described for virus yield reduction assay. Original magnification: 20×.
# Figure 4 (A) Vero cells were infected with HSV-1 and, where indicated, the cells were treated with increasing concentrations of the indicated compounds, before and during virus adsorption. These remained in the culture media throughout the experiment. The extent of HSV-1 replication was then assessed by titrating the infectivity of supernatants and cell-associated viruses—obtained from freeze (liquid nitrogen)/thaw (37 °C) cycles—and combined using a standard plaque assay. […]
row,SMILES,pIC50
1,N=C(NCc1ccccc1)NC(=O)N1CCN(c2ccc(Cl)cc2)CC1 [Compound 5j],4.14
2,N=C(NC(=O)N1CCN(C23CC4CC(CC(C4)C2)C3)CC1)Nc1ccc(Cl)cc1 [Compound 5k],4.73

# Same assay, conditions: virus yield reduction, Vero cells, MOI 0.1, 48 h; 100 µM (50 µM for 5f and 5k)
row,SMILES,antiviral activity against HSV-1 (in words)
1,N=C(NC(=O)N1CCOCC1)Nc1ccc(Cl)cc1 [Compound 5d],more pronounced against HSV-1
2,N=C(NC(=O)N1CCN(c2ccccc2)CC1)Nc1ccc(Cl)cc1 [Compound 5i],very strong activity
3,N=C(NCc1ccccc1)NC(=O)N1CCN(c2ccc(Cl)cc2)CC1 [Compound 5j],very strong activity
4,N=C(NC(=O)N1CCN(C23CC4CC(CC(C4)C2)C3)CC1)Nc1ccc(Cl)cc1 [Compound 5k],very strong activity
5,"N=C(N)/N=C(\N)N1CCOCC1 [moroxydine, reference compound]",does not show any antiviral activity

# Tested on: HSV-2
# Experiment: Virus yield reduction assay (plaque titration) HSV-2
# Format: cell-based, Herpes simplex virus type 2 (clinical isolate) in Vero cells
# Details: Vero cells, MOI 0.1, 48 h, 100 µM (50 µM for 5f and 5k)
# Protocol: as §2, §3, §4
# as §5, with “Representative light microscopy images of Vero cells infected with (A) HSV-1 or (B) HSV-2 and treated with the indicated compounds, as described for virus yield reduction assay. Original magnification: 20×.” left out
row,SMILES,antiviral activity against HSV-2 (in words)
1,N=C(NC(=O)N1CCN(c2ccccc2)CC1)Nc1ccc(Cl)cc1 [Compound 5i],very strong activity
2,N=C(NCc1ccccc1)NC(=O)N1CCN(c2ccc(Cl)cc2)CC1 [Compound 5j],very strong activity
3,N=C(NC(=O)N1CCN(C23CC4CC(CC(C4)C2)C3)CC1)Nc1ccc(Cl)cc1 [Compound 5k],very strong activity
4,"N=C(N)/N=C(\N)N1CCOCC1 [moroxydine, reference compound]",does not show any antiviral activity

# Tested on: ICP27 and gD (HSV-1)
# Experiment: Western blot of viral gene expression in HSV-1-infected Vero cells
# Format: cell-based, HSV-1 in Vero cells
# Details: MOI 0.3, various times post infection, immunoblotting
# Protocol: (§6) Finally, to identify the phase of HSV replication program that is affected by amidinourea derivatives, the effects of 5i compound on viral gene expression was investigated in HSV-1 and HSV-2-infected cells. To this end, the total protein cell extracts were prepared from HSV-infected Vero cells treated with 5i, or vehicle control, for various lengths of time post infection. The expression patterns of ICP27, for HSV-1, ICP8, for HSV-2, gD, for HSV-1 and HSV-2, were then examined via immunoblotting with specific antibodies and were used as a reflection of the levels of immediate-early/early (ICP27, ICP8) and late (gD) viral products, respectively. […] However, the precise mechanism exploited by amidinourea derivatives to carry out their antiviral activity against HSV still deserves to be elucidated and is beyond the goals of the present communication.
# (§7) After treatment, the cells were washed with phosphate-buffered saline (PBS), and cell lysis was carried out using radioimmunoprecipitation assay (RIPA) buffer to obtain total cell lysate. […]
# (§8) Figure 5 Vero cells were mock infected or infected with HSV-1 (A) or HSV-2 (B) at an MOI of 0.3. Protein levels of ICP27 (HSV-1), ICP8 (HSV-2) and gD (HSV-1/2) were assessed at different times post infection (hpi) by Western blotting (upper panels). […]
row,SMILES,expression of viral proteins ICP27 and gD (HSV-1)
1,N=C(NC(=O)N1CCN(c2ccccc2)CC1)Nc1ccc(Cl)cc1 [Compound 5i],overall decrease of viral proteins

# Tested on: ICP8 and gD (HSV-2)
# Experiment: Western blot of viral gene expression in HSV-2-infected Vero cells
# Format: cell-based, HSV-2 in Vero cells
# Details: MOI 0.3, various times post infection, immunoblotting
# Protocol: as §6, §7, §8
row,SMILES,expression of viral proteins ICP8 and gD (HSV-2)
1,N=C(NC(=O)N1CCN(c2ccccc2)CC1)Nc1ccc(Cl)cc1 [Compound 5i],overall decrease of viral proteins
